Entries after “also recorded” stand apart in the source; their conditions may differ. Read-outs that look alike come from different tables or passages of the source.
Key:
[1] = for AUC0–tz Ratio T/R / Cmax Ratio T/R: cocktail + probenecid vs cocktail alone
[2] = for AUC0–tz Ratio T/R / Cmax Ratio T/R: cocktail + cimetidine vs cocktail alone
[3] = cited from earlier work
[4] = Plasma concentrations of the transporter inhibitors around expected time to Cmax; format: in vivo, healthy male subjects; conditions: cimetidine 400 mg multiple doses; current study
[5] = Safety and tolerability assessment; format: in vivo, healthy male subjects; conditions: one subject, upon administration of probenecid 1000 mg
[6] = cocktail + rifampin vs cocktail alone
[7] = cocktail + verapamil vs cocktail alone
[8] = cocktail with single-dose rifampin vs cocktail alone
[9] = cocktail with single-dose verapamil vs cocktail alone
[10] = cocktail (furosemide 1 mg) with probenecid vs cocktail alone
[11] = cocktail (metformin 10 mg) with cimetidine vs cocktail alone
[12] = metformin 500 mg with cimetidine vs alone

Row | SMILES | AUC0–tz Ratio T/R [6] [%] | Cmax Ratio T/R [6] [%] | AUC0–tz Ratio T/R [7] [%] | Cmax Ratio T/R [7] [%] | increase of AUC0–tz [8] [%] | increase of Cmax [8] [%] | decrease of CLR [1, 10] [%] | AUC0–tz Ratio T/R [1] [%] | Cmax Ratio T/R [1] [%] | AUC0–tz Ratio T/R [2] [%] | Cmax Ratio T/R [2] [%] | increase of AUC0–tz [2, 11] [%] | other results
1 | CN(C)C(=N)N=C(N)N [Metformin, metformin] | – | – | – | – | – | – | – | – | – | – | – | 31 | increase in systemic exposure ([3]; metformin with cimetidine, previous findings): 45–70%; increase in exposure ([3]; metformin with rifampin coadministration): 10%; increase of Cmax [2, 11]: 23%; increase of AUC0–tz [2, 12]: 51%; increase of Cmax [2, 12]: 41%
2 | CN/C(=N/CCSCc1nc[nH]c1C)NC#N [Cimetidine, cimetidine] | – | – | – | – | – | – | – | – | – | – | – | – | maximum plasma concentrations [4]: 4.24 to 11.1 µM
3 | CCCN(CCC)S(=O)(=O)c1ccc(C(=O)O)cc1 [Probenecid, probenecid] | – | – | – | – | – | – | – | – | – | – | – | – | AEs leading to premature withdrawal from treatment [5]: nausea, dizziness

Continued, in another order:

Row | AUC0–tz Ratio T/R [6] [%] | Cmax Ratio T/R [6] [%] | AUC0–tz Ratio T/R [7] [%] | Cmax Ratio T/R [7] [%] | increase of AUC0–tz [8] [%] | increase of Cmax [8] [%] | decrease of CLR [1, 10] [%] | AUC0–tz Ratio T/R [1] [%] | Cmax Ratio T/R [1] [%] | AUC0–tz Ratio T/R [2] [%] | Cmax Ratio T/R [2] [%] | increase of AUC0–tz [2, 11] [%] | SMILES | other results
4 | 348.06 | 1125.10 | 113.40 | 115.39 | 248 | 1025 | 78 | 223.24 | 428.23 | 107.42 | 116.88 | – | CC(C)c1nc(N(C)S(C)(=O)=O)nc(-c2ccc(F)cc2)c1/C=C/[C@@H](O)C[C@@H](O)CC(=O)O [Rosuvastatin, rosuvastatin] | effect of verapamil on systemic exposure [9]: no effect; increase of AUC0–tz [1, 10]: 123%; increase of Cmax [1, 10]: 328%; effect of cimetidine on systemic exposure ([2]; cocktail with cimetidine vs cocktail alone): no effect
5 | 131.41 | 218.26 | 100.70 | 121.64 | 31 | 118 | – | 106.78 | 87.07 | 125.61 | 122.03 | 26 | C[C@H]1O[C@@H](O[C@H]2[C@@H](O)C[C@H](O[C@H]3[C@@H](O)C[C@H](O[C@H]4CC[C@@]5(C)[C@H](CC[C@@H]6[C@@H]5C[C@@H](O)[C@]5(C)[C@@H](C7=CC(=O)OC7)CC[C@]65O)C4)O[C@@H]3C)O[C@@H]2C)C[C@H](O)[C@@H]1O [Digoxin, digoxin] | effect on AUC0–tz [9]: unaltered; also recorded: unchanged; effect on CLR [9]: unchanged; increase of Cmax [9]: 22%; increase in exposure ([3]; digoxin with verapamil administered over multiple days): 44–77%; effect of probenecid on systemic exposure ([1]; cocktail with probenecid vs cocktail alone): no relevant effect
6 | – | – | – | – | – | – | 74 | – | – | – | – | – | NS(=O)(=O)c1cc(C(=O)O)c(NCc2ccco2)cc1Cl [Furosemide, furosemide] | decrease of CLR ([1]; furosemide 40 mg with probenecid vs alone): 76%
